Results on 16 compounds are retold here after ChEMBL document CHEMBL3132815, “Design, synthesis and activities of 4/5-acyl-2-aminoimidazolyl analogues of oroidin for biofilm inhibition” (Medchemcomm, 2013).

Data set [1] deals with Staphylococcus aureus. The data set can be described thus: Antibiofilm activity against methicillin-resistant Staphylococcus aureus assessed as inhibition of biofilm formation at 50 ug/ml. The data set is classed as functional.
Data set [2] deals with Staphylococcus aureus. The data set can be described thus: Antibacterial activity against Staphylococcus aureus ATCC 35556 assessed as planktonic growth at 50 ug/ml. The data set is classed as organism-based.
The subject of data set [3] is Staphylococcus epidermidis. Nature of the data set: Antibiofilm activity against Staphylococcus epidermidis GTC 18972 assessed as inhibition of biofilm formation at 50 ug/ml. The data set is classed as functional.
In data set [4] the test system is Pseudomonas aeruginosa. The data set can be described thus: Antibiofilm activity against Pseudomonas aeruginosa PAO1 assessed as inhibition of biofilm formation at 50 ug/ml. Format: functional.
For data set [5], the system named is Staphylococcus aureus. Nature of the data set: Antibiofilm activity against Staphylococcus aureus ATCC 35556 assessed as inhibition of biofilm formation at 50 ug/ml. The data set is classed as functional.
Data set [6] relates to Staphylococcus epidermidis. The data set can be described thus: Antibacterial activity against Staphylococcus epidermidis 1457 assessed as planktonic growth at 50 ug/ml. Format: organism-based.
For data set [7], the system named is Staphylococcus aureus. Nature of the data set: Antibacterial activity against methicillin-resistant Staphylococcus aureus assessed as planktonic growth at 50 ug/ml. The data set is classed as organism-based. Conditions: in vitro.
For data set [8], the system named is Staphylococcus epidermidis. Nature of the data set: Antibiofilm activity against Staphylococcus epidermidis 1457 assessed as inhibition of biofilm formation at 50 ug/ml. Format: functional.
Data set [9] deals with Pseudomonas aeruginosa. The data set can be described thus: Antibacterial activity against Pseudomonas aeruginosa PAO1 assessed as planktonic growth at 50 ug/ml. The data set is classed as organism-based.
Data set [10] concerns Staphylococcus aureus. The data set can be described thus: Antibacterial activity against methicillin-resistant Staphylococcus aureus 1094 assessed as planktonic growth at 50 ug/ml. Format: organism-based.
Data set [11] deals with Staphylococcus aureus. The data set can be described thus: Antibiofilm activity against methicillin-resistant Staphylococcus aureus 1094 assessed as inhibition of biofilm formation at 50 ug/ml. Format: functional.
Data set [12] relates to Staphylococcus epidermidis. The data set can be described thus: Antibacterial activity against Staphylococcus epidermidis GTC 18972 assessed as planktonic growth at 50 ug/ml. Format: organism-based.

For the compound `O=C(CN1C(=O)c2ccccc2C1=O)c1cnc2ncccn12`, the inhibition at 50 µg/mL in [1] is -97.9%; in data set [3], 8.1%; in [4], -7.64%; in [5] it was -3.15%; in data set [8] it was 6.4%; in data set [11] it was -67.5%. The Activity in [2] is -6.07%; in [6], 11.1%; in [7], 3.76%; in [9], -0.69%; in [10], 21.51%; in [12] it was 29.67%.
As to `Cl.Cl.NCCC(=O)c1cnc2ncccn12`, the inhibition at 50 µg/mL in data set [1] was -10.6%; in data set [3] it was 4.2%; in data set [4] it was -1.5%; in data set [5] it was 57.1%; in data set [8], 33%; in data set [11] it was -1.8%. Moreover, the Activity in data set [2] is -3.3%; in data set [6], 3.5%; in data set [7], -12.6%; in [9], 11.1%; in data set [10], -0.9%; in [12] it was 5.5%.
Turning to `O=C(NC/C=C/c1cnc2ncccn12)c1cc(Br)c[nH]1`, the inhibition at 50 µg/mL in data set [1] is -108%; in [3] it was -1.8%; in [4], 2.1%; in data set [5], -5.5%; in data set [8], 14%; in [11], 36%. Also, the Activity in data set [2] was 8.6%; in data set [6], -24%; in data set [7], -16.4%; in data set [9] it was -19.9%; in data set [10], -8.7%; in [12], -3.1%.
On to `O=C(NCC(O)c1cnc2ncccn12)c1ccc[nH]1` (configuration not stated), for which the inhibition at 50 µg/mL in [1] was 16.9%; in [3] it was -16.8%; in [4], 13.2%; in data set [5], -1.6%; in data set [8], -1.26%; in [11], -25.1%. Besides, the Activity in data set [2] was 6.67%; in data set [6] it was -3.27%; in data set [7] it was 0.95%; in [9], -15.89%; in data set [10], 10.52%; in data set [12] it was 11.45%.
Turning to `O=C(NCC(O)c1cnc2ncccn12)c1cc(Br)c[nH]1` (configuration not stated), the inhibition at 50 µg/mL in data set [1] was -127%; in data set [3], -9.3%; in data set [4], 17%; in [5], -8.17%; in [8] it was 2.71%; in [11], 22.5%. Besides, the Activity in data set [2] is 4.97%; in data set [6] it was -2.26%; in [7] it was -6.08%; in data set [9], -14.84%; in [10] it was 5.81%; in data set [12] it was 1.02%.
For the compound `O=C(NC/C=C/c1cnc2ncccn12)c1ccc[nH]1`, the inhibition at 50 µg/mL in data set [1] was -61%; in data set [3], 45.9%; in data set [4] it was -2.9%; in [5] it was 16.4%; in data set [8], 22.8%; in [11], 47.8%. In addition, the Activity is listed as -11.5% in data set [2]; -8.9% in [6]; 5% in [7]; 14.6% in data set [9]; -0.8% in data set [10]; 0.1% in data set [12].
With `O=C(NCCC(=O)c1cnc2ncccn12)c1cc(Br)c(Br)[nH]1`, the inhibition at 50 µg/mL in data set [1] is -124%; in [3], -9.35%; in data set [4] it was 8.66%; in [5], -4.41%; in data set [8] it was 4.48%; in data set [11] it was 0.13%. The Activity was -6.51% in data set [2]; 9.93% in data set [6]; -1.91% in data set [7]; -13.02% in data set [9]; 6.37% in data set [10]; 15.9% in data set [12].
Consider `O=C(CCN1C(=O)c2ccccc2C1=O)c1cnc2ncccn12`, for which the inhibition at 50 µg/mL in data set [1] is 18.7%; in data set [3], -11%; in data set [4] it was 23%; in data set [5], 6.92%; in data set [8], 10.6%; in data set [11], -53.2%. Besides, the Activity in data set [2] is on record as 2.31%; in data set [6], 15.13%; in data set [7], 10.43%; in [9], -16.12%; in [10], 15.94%; in data set [12], 23.58%.
Regarding `O=C(NCCC(O)c1cnc2ncccn12)c1ccc[nH]1` (configuration not stated), the inhibition at 50 µg/mL was -5.1% in data set [1]; 18.1% in data set [3]; 3.9% in [4]; -6.5% in data set [5]; 9.6% in data set [8]; 26.8% in data set [11]. Further, the Activity is 3.3% in data set [2]; 0.7% in data set [6]; 6.1% in data set [7]; -19.1% in data set [9]; -7.9% in data set [10]; 1% in data set [12].
As to `O=C(NCC(=O)c1cnc2ncccn12)c1cc(Br)c(Br)[nH]1`, the inhibition at 50 µg/mL in data set [1] was -119%; in data set [3], -2.59%; in [4], 20.8%; in data set [5], -5.8%; in data set [8], 6.17%; in [11], -13.9%. In addition, the Activity in data set [2] is recorded as -4.3%; in data set [6], 13.8%; in [7], 7.17%; in data set [9], -15.25%; in [10], 18.43%; in data set [12] it was 19.25%.
`O=C(NCC(=O)c1cnc2ncccn12)c1cc(Br)c[nH]1`: the inhibition at 50 µg/mL in data set [1] is -124%; in data set [3] it was -9.93%; in data set [4] it was 27.4%; in data set [5], -8.17%; in data set [8] it was 7.83%; in data set [11], 7.07%. The Activity is reported as -3.86% in [2]; 13.47% in [6]; -6.08% in data set [7]; -6.55% in data set [9]; 16.74% in [10]; 19.25% in data set [12].
Turning to `O=C(NCCC(=O)c1cnc2ncccn12)c1cc(Br)c[nH]1`, the inhibition at 50 µg/mL in [1] was -127%; in data set [3] it was -9.3%; in data set [4] it was 17%; in data set [5], -8.17%; in data set [8], 2.71%; in data set [11] it was 22.5%. Also, the Activity in data set [2] is reported as 4.97%; in data set [6], -2.26%; in data set [7], -6.08%; in data set [9] it was -14.84%; in [10], 5.81%; in data set [12] it was 1.02%.
`O=C(NCC(O)c1cnc2ncccn12)c1cc(Br)c(Br)[nH]1` (configuration not stated): the inhibition at 50 µg/mL was -124% in data set [1]; -9.35% in [3]; 8.66% in [4]; -4.41% in data set [5]; 4.48% in data set [8]; 0.13% in [11]. In addition, the Activity is -6.51% in [2]; 9.93% in [6]; -1.91% in data set [7]; -13.02% in data set [9]; 6.37% in [10]; 15.9% in data set [12].
For `Cl.Cl.NCC(=O)c1cnc2ncccn12`, the inhibition at 50 µg/mL in data set [1] was 4.3%; in data set [3], 28.7%; in data set [4], 5.6%; in data set [5] it was -5.1%; in data set [8] it was 0.9%; in data set [11], -30.2%. For the same compound, the Activity is listed as 6.2% in data set [2]; -0.6% in data set [6]; 7.8% in data set [7]; 28.8% in data set [9]; 2% in data set [10]; 6.4% in data set [12].
As for `O=C(NCCC(=O)c1cnc2ncccn12)c1ccc[nH]1`, the inhibition at 50 µg/mL in data set [1] is 16.9%; in data set [3], -16.7%; in [4], 13.2%; in [5] it was -1.6%; in data set [8], 1.26%; in [11] it was -25.1%. The Activity is on record as 6.67% in data set [2]; -3.27% in [6]; 0.95% in data set [7]; -15.89% in data set [9]; 10.52% in data set [10]; 11.45% in data set [12].
With `O=C(NCCC(O)c1cnc2ncccn12)c1cc(Br)c(Br)[nH]1` (configuration not stated), the inhibition at 50 µg/mL in data set [1] is -20.9%; in data set [3] it was -33.1%; in data set [4], -1.4%; in data set [5], -2.2%; in [8], 19.6%; in data set [11], 26.2%. The Activity in [2] is 2.9%; in data set [6], 10.2%; in data set [7] it was -5.1%; in data set [9], 14.1%; in [10], -0.8%; in data set [12] it was 14.8%.

What is called inhibition is the change of the read-out against control, counted positive when it falls.
